Read-outs that look alike come from different tables or passages of the source.
Assay: Pharmacokinetic study of 153 (and metabolite endothal) in SD rats, iv and po; plasma, liver, brain
Type: in vivo
Conditions: for MRT last: read-out: MRT (0-t); for half-life: read-out: T1/2 (converted); for Tmax: read-out: Tmax
Experimental: The blood, liver and brain tissue samples were collected at predetermined times from rats. […] Compound were diluted shortly before use in 4% sodium bicarbonate for sterile injection (this is the standard pediatric solution of NaHCO3 with a pH of about 8.5).
Compound 153 was freshly prepared by diluting the drugs shortly before use in 4% sodium bicarbonate for sterile injection (this is the standard pediatric solution of NaHCO3 with a pH of about 8.5). The final concentrations of 153 solutions were 0.25 mg/mL. The 153 solutions were administered via iv or po route at dose volume of 5 ml/kg according to the latest body weight. Compound 157 was freshly prepared by diluting the drugs shortly before use in 4% sodium bicarbonate for sterile injection (this is the standard pediatric solution of NaHCO3 with a pH of about 8.5). The final concentrations of […] solutions were 0.3 mg/mL. The 157 solutions were administered via iv or po route at dose volume of 5 ml/kg according to the latest body weight.
Twelve (12) female SD rats per group were dosed by iv with 153 or 157. The rats were fasted overnight prior to dosing, with free access to water. Foods were withheld for 2 hours post-dose. Blood, liver and brain tissue samples in two animals each group were collected at each time point, within 10% of the scheduled time for each time point. Two extra animals were used for analytic method development.
Blood (>0.3 mL) were collected via aorta abdominalis in anaesthetic animals into tubes containing heparin at 15 min, 1, 2, 6, 10 and 24 hours after iv administration. Liver and brain tissues were collected immediately after animal death. The liver and brain tissues were excised and rinsed with cold saline to avoid blood residual. Upon collection, each sample was placed on ice and the blood samples were subsequently centrifuged (4° C., 11000 rpm, 5 min) to separate plasma. The obtained plasma, liver and brain tissue samples were stored at −70° C. until LC-MS/MS analysis.
Two (2) female SD rats per group were dosed by po with 153 or 157. The rats were fasted overnight prior to dosing, with free access to water. Foods were withheld for 2 hours post-dose. Blood samples (>0.3 mL) were collected via aorta abdominalis in anaesthetic animals into tubes containing heparin at 30 min, 1, 2, 6, 10 and 24 hours after po administration.
To each sample, 20 μL IS-D (for blank samples, 20 μL acetonitrile:water (1:1) was added) and 300 μl acetonitrile was added. The sample mixture was vortexed for approximately 3 min. After centrifugation at 10000 rpm for 5 min at 4° C., 100 μL of the upper layer was transferred to a new tube and added 200 μL 0.4% formic acid in water (pH 6.0). The mixture was vortexed for approximately 3 min before injected onto the LC/MS/MS system for analysis.
On the day of the assay, the frozen liver and brain samples were thawed unassisted at room temperature. An about 200 mg weighed sample of each thawed tissue was placed into a plastic tube with water (0.6 mL) to facilitate homogenization. Tissue processing was conducted using a homogenizer for approximately 1 min, 200 μl homogenate was transferred into a fresh Eppendorf tube. To each tube, 50 μL IS-D was added and mixed. Then 600 μl acetonitrile was added and the sample mixture was vortexed for approximately 3 min. After centrifugation at 10000 rpm for 5 min at 4° C., 400 μL of the upper layer was transferred to a new tube and evaporate the supernatant to dryness at 35° C. Reconstitute the residue with 200 μL of 0.4% formic acid in water (pH6.0), and vortex for 3 min, submit for LC-MS/MS analysis.
Frozen unknown plasma samples were completely thawed at room temperature and vortexed thoroughly. With a pipette, 50 μL of plasma was transferred into a 2.0 mL Eppendorf tube. 50 μL of 0.1N HCl and 800 μL ethyl acetate were added into each sample. The sample mixture was vortexed for approximately 3 min.

[1] = female, SD, rat, in vivo, iv, 1.25 mg/kg, iv 1.25 mg/kg, Mean, read-out: 153 liver concentration
[2] = female, SD, rat, in vivo, iv, 1.25 mg/kg, iv 1.25 mg/kg, Mean, read-out: 153 plasma concentration
[3] = female, SD, rat, in vivo, iv, 1.25 mg/kg, iv 1.25 mg/kg, Rat 1, read-out: 153 brain concentration
[4] = female, SD, rat, in vivo, iv, 1.25 mg/kg, iv 1.25 mg/kg, Rat 1, read-out: 153 liver concentration
[5] = female, SD, rat, in vivo, iv, 1.25 mg/kg, iv 1.25 mg/kg, Rat 1, read-out: 153 plasma concentration
[6] = female, SD, rat, in vivo, iv, 1.25 mg/kg, iv 1.25 mg/kg, Rat 2, read-out: 153 brain concentration
[7] = female, SD, rat, in vivo, iv, 1.25 mg/kg, iv 1.25 mg/kg, Rat 2, read-out: 153 liver concentration
[8] = female, SD, rat, in vivo, iv, 1.25 mg/kg, iv 1.25 mg/kg, Rat 2, read-out: 153 plasma concentration
[9] = female, SD, rat, in vivo, po, 1.25 mg/kg, 153 in plasma, PO 1.25 mg/kg, Mean
[10] = female, SD, rat, in vivo, po, 1.25 mg/kg, 153 in plasma, PO 1.25 mg/kg, rat 1
[11] = female, SD, rat, in vivo, po, 1.25 mg/kg, 153 in plasma, PO 1.25 mg/kg, rat 2
[12] = female, SD, rat, in vivo, po, 1.25 mg/kg, PO per title, 1.25 mg/kg, Mean, read-out: 153 liver concentration
[13] = female, SD, rat, in vivo, po, 1.25 mg/kg, PO per title, 1.25 mg/kg, Rat 2, read-out: 153 liver concentration
[14] = female, Sprague-Dawley (SD), rat, in vivo, iv, 1.25 mg/kg, Brain, 1.25 mg/kg IV, Mean
[15] = female, Sprague-Dawley (SD), rat, in vivo, iv, 1.25 mg/kg, Brain, 1.25 mg/kg IV, rat 1
[16] = female, Sprague-Dawley (SD), rat, in vivo, iv, 1.25 mg/kg, Brain, 1.25 mg/kg IV, rat 2
[17] = female, Sprague-Dawley (SD), rat, in vivo, iv, 1.25 mg/kg, Liver, 1.25 mg/kg IV, Mean
[18] = female, Sprague-Dawley, rat, in vivo, po, 1.25 mg/kg, PO per title, 1.25 mg/kg, Rat 1, read-out: 153 liver concentration

Work on `CCCOC(=O)C1C2CCC(O2)C1C(=O)N1CCN(C)CC1` (stereo not shown) [Compound 153, 3-(4-Methylpiperazine-1-carbonyl)-7-oxa-bicyclo[2,2,1]heptane-2-carboxylic acid propyl ester] yielded a concentration at 1 h [1] of 126 ng/g, a concentration at 1 h [2] of 54.7 ng/mL and a concentration at 1 h [3] of 13.9 ng/g. For the same compound, the concentration at 1 h [4] was 131 ng/g, the concentration at 1 h [5] was 58 ng/mL and the concentration at 1 h [6] was 14.3 ng/g. The concentration at 1 h [7] was 121 ng/g, the concentration at 1 h [8] was 51.4 ng/mL and the concentration at 2 h (female, SD, rat, in vivo, iv, 1.25 mg/kg, iv 1.25 mg/kg, Mean, read-out: 153 brain concentration) was 4.4 ng/g. It also gave a concentration at 2 h [1] of 41.6 ng/g, a concentration at 2 h [2] of 13.9 ng/mL and a concentration at 2 h [3] of 4.05 ng/g. For the same compound, the concentration at 2 h [4] was 42 ng/g, the concentration at 2 h [5] was 14.8 ng/mL and the concentration at 2 h [6] was 4.75 ng/g. It also gave a concentration at 2 h [7] of 41.2 ng/g, a concentration at 2 h [8] of 13 ng/mL and a concentration at 6 h (female, SD, rat, in vivo, iv, 1.25 mg/kg, iv 1.25 mg/kg, 6 hr, Mean) of 1.03 ng/mL. For the same compound, the concentration at 6 h (female, SD, rat, in vivo, iv, 1.25 mg/kg, iv 1.25 mg/kg, 6 hr, Rat 1) was 1.04 ng/mL, the concentration at 6 h (female, SD, rat, in vivo, iv, 1.25 mg/kg, iv 1.25 mg/kg, 6 hr, Rat 2) was 1.02 ng/mL and the concentration at 10 h (female, SD, rat, in vivo, iv, 1.25 mg/kg, iv 1.25 mg/kg, 10 hr, Rat 2, abnormal, not included in the calculation) was 9.42 ng/mL. The MRT last [9] was 60.6 min, the half-life [9] was 20.6 min and the AUC(0-inf) [10] was 163 ng·h/mL. It also gave an AUC (female, SD, rat, in vivo, po, 1.25 mg/kg, 153 in plasma, PO 1.25 mg/kg, rat 1, read-out: AUC) of 163 ng·h/mL, a Cmax (female, SD, rat, in vivo, po, 1.25 mg/kg, 153 in plasma, PO 1.25 mg/kg, rat 1, read-out: Cmax) of 249 ng/mL and an MRT last [10] of 59.2 min. The half-life [10] was 19.8 min, the AUC(0-inf) [11] was 164 ng·h/mL and the AUC (female, SD, rat, in vivo, po, 1.25 mg/kg, 153 in plasma, PO 1.25 mg/kg, rat 2, read-out: AUC) was 164 ng·h/mL. For the same compound, the Cmax (female, SD, rat, in vivo, po, 1.25 mg/kg, 153 in plasma, PO 1.25 mg/kg, rat 2, read-out: Cmax) was 229 ng/mL, the MRT last [11] was 62.4 min and the half-life [11] was 21.3 min. It also gave an AUC (female, SD, rat, in vivo, po, 1.25 mg/kg, 153 po 1.25 mg/kg, read-out: AUC of 153 in plasma) of 164 ng·h/mL, a Cmax (female, SD, rat, in vivo, po, 1.25 mg/kg, 153 po 1.25 mg/kg, read-out: Cmax of 153 in plasma) of 239 ng/mL and a concentration at 0.25 h [12] of 762 ng/g. It also gave a concentration at 0.25 h [13] of 652 ng/g, a concentration at 1 h [12] of 126 ng/g and a concentration at 1 h (female, SD, rat, in vivo, po, 1.25 mg/kg, PO per title, 1.25 mg/kg, Rat 1, read-out: 153 liver concentration) of 131 ng/g. The concentration at 1 h [13] was 121 ng/g, the AUC(0-t) (female, SD, rat, in vivo, 153 iv 1.25 mg/kg, read-out: AUClast of 153 in plasma) was 295 ng·h/mL and the bioavailability (female, SD, rat, in vivo, 153 po vs iv 1.25 mg/kg, read-out: BA (bioavailability) of 153) was 55.4%. The Cmax (female, Sprague-Dawley (SD), rat, in vivo, iv, 1.25 mg/kg, Brain, 1.25 mg/kg IV, Mean, read-out: Cmax) was 42.7 ng/g, the MRT last [14] was 58.3 min and the half-life [14] was 35.8 min. It also gave a Cmax (female, Sprague-Dawley (SD), rat, in vivo, iv, 1.25 mg/kg, Brain, 1.25 mg/kg IV, rat 1, read-out: Cmax) of 45 ng/g, an MRT last [15] of 56 min and a half-life [15] of 33.7 min. It also gave a Cmax (female, Sprague-Dawley (SD), rat, in vivo, iv, 1.25 mg/kg, Brain, 1.25 mg/kg IV, rat 2, read-out: Cmax) of 40.3 ng/g, an MRT last [16] of 60.6 min and a half-life [16] of 37.7 min. It also gave a Cmax (female, Sprague-Dawley (SD), rat, in vivo, iv, 1.25 mg/kg, Liver, 1.25 mg/kg IV, Mean, read-out: Cmax) of 762 ng/g, an MRT last [17] of 47.1 min and a half-life [17] of 37.6 min. It also gave a half-life (female, Sprague-Dawley (SD), rat, in vivo, iv, 1.25 mg/kg, Liver, 1.25 mg/kg IV, rat 2) of 38.6 min, an AUC(0-inf) (female, Sprague-Dawley (SD), rat, in vivo, po, 1.25 mg/kg, 153 in plasma, PO 1.25 mg/kg, Mean) of 164 ng·h/mL and an AUC (female, Sprague-Dawley (SD), rat, in vivo, po, 1.25 mg/kg, 153 in plasma, PO 1.25 mg/kg, Mean, read-out: AUC) of 164 ng·h/mL. The Cmax (female, Sprague-Dawley (SD), rat, in vivo, po, 1.25 mg/kg, 153 in plasma, PO 1.25 mg/kg, Mean, read-out: Cmax) was 239 ng/mL, the Tmax (female, Sprague-Dawley (SD), rat, in vivo, 153 in plasma, PO 1.25 mg/kg, Mean) was 30 min and the Tmax (female, Sprague-Dawley (SD), rat, in vivo, Liver, 1.25 mg/kg IV, Mean) was 15 min. For the same compound, the concentration at 0.25 h [18] was 872 ng/g, the concentration at 2 h (female, Sprague-Dawley, rat, in vivo, po, 1.25 mg/kg, PO per title, 1.25 mg/kg, Mean, read-out: 153 liver concentration) was 41.6 ng/g and the concentration at 2 h [18] was 42 ng/g. The concentration at 2 h (female, Sprague-Dawley, rat, in vivo, po, 1.25 mg/kg, PO per title, 1.25 mg/kg, Rat 2, read-out: 153 liver concentration) was 41.2 ng/g, the 153 liver concentration (iv 1.25 mg/kg, 6 hr, Rat 1) was “BLQ” and the 153 liver concentration (iv 1.25 mg/kg, 6 hr, Rat 2) was “BLQ”. For the same compound, the 153 liver concentration (iv 1.25 mg/kg, 10 hr, Rat 1) was “BLQ”.

— US20160264593A1 (priority 2013, published 2016)
